From ChEMBL document CHEMBL1155894, “Novel analogues of istaroxime, a potent inhibitor of Na+,K+-ATPase: synthesis and structure-activity relationship” (J Med Chem, 2008)

Tests used:
[1] = test system: Cavia porcellus; experiment: […] effect in anesthetized guinea pig assessed as increase in dP/dtmax response relative to control; assay type: functional
[2] = Inhibition of dog kidney Na+,K+-ATPase by [32P]ATP hydrolysis method; design: species or system Canis lupus familiaris
[3] = test system: Cavia porcellus; experiment: […] effect in anesthetized guinea pig assessed as drug level inducing maximun increase in dP/dtmax response relative to control; assay type: functional
[4] = species: Cavia porcellus; experiment: Ratio of toxic lethal dose to ED80 for inotropic activity in guinea pig; assay type: functional
[5] = test system: Cavia porcellus; experiment: […] effect in anesthetized guinea pig assessed as drug level inducing increase in dP/dtmax response; assay type: functional
[6] = species: Cavia porcellus; experiment: Toxicity in guinea pig assessed as induction of death; assay type: organism-based; details: in vivo

SMILES	Emax [1] [%]	IC50 [2] [nM]	Activity [3] [µmol/kg]	Ratio [4]	ED80 [5] [µmol/kg]	Activity [6]
C[C@]12CCC(=NO[C@@H]3CCNC3)C[C@@H]1C(=O)C[C@@H]1[C@@H]2CC[C@]2(C)C(=O)CC[C@@H]12	223	26	8.09	12	2.01	–
CC12CCC3C(CC(=O)C4CC(=NOCCN)CCC43C)C1CCC2=O (configuration not stated)	182	110	5.74	25.6	1.82	–
CCCON=C1CC[C@@]2(C)[C@H](C1)C(=O)C[C@@H]1[C@@H]2CC[C@]2(C)C(=O)CC[C@@H]12	260	56	6.79	20.8	1.03	Toxic
C[C@]12CC/C(=N/OC3CNC3)C[C@@H]1C(=O)C[C@@H]1[C@@H]2CC[C@]2(C)C(=O)CC[C@@H]12	–	100	–	–	–	–
C[C@H](N)CO/N=C1/CC[C@@]2(C)[C@H](C1)C(=O)C[C@@H]1[C@@H]2CC[C@]2(C)C(=O)CC[C@@H]12	–	370	–	–	–	–
C[C@@H](N)CO/N=C1/CC[C@@]2(C)[C@H](C1)C(=O)C[C@@H]1[C@@H]2CC[C@]2(C)C(=O)CC[C@@H]12	–	380	–	–	–	–
CNCCO/N=C1/CC[C@@]2(C)[C@H](C1)C(=O)C[C@@H]1[C@@H]2CC[C@]2(C)C(=O)CC[C@@H]12	–	690	–	–	–	–
CNCCCO/N=C1/CC[C@@]2(C)[C@H](C1)C(=O)C[C@@H]1[C@@H]2CC[C@]2(C)C(=O)CC[C@@H]12	–	230	–	–	–	–
CN1CC[C@H](O/N=C2/CC[C@@]3(C)[C@H](C2)C(=O)C[C@@H]2[C@@H]3CC[C@]3(C)C(=O)CC[C@@H]23)C1	–	40500	–	–	–	–
CN1CC[C@@H](O/N=C2/CC[C@@]3(C)[C@H](C2)C(=O)C[C@@H]2[C@@H]3CC[C@]3(C)C(=O)CC[C@@H]23)C1	–	1300	–	–	–	–
C[C@]12CC/C(=N/OCCN)C[C@@H]1C(=O)C[C@@H]1[C@@H]2CC[C@]2(C)C(=O)CC[C@@H]12	235	630	12.1	22.5	3.36	–
CC(C)(N)CO/N=C1/CC[C@@]2(C)[C@H](C1)C(=O)C[C@@H]1[C@@H]2CC[C@]2(C)C(=O)CC[C@@H]12	–	28500	–	–	–	–
C[C@]12CC/C(=N/OCCCCN)C[C@@H]1C(=O)C[C@@H]1[C@@H]2CC[C@]2(C)C(=O)CC[C@@H]12	–	1800	–	–	–	–
C[C@]12CC/C(=N/O[C@H]3CCNC3)C[C@@H]1C(=O)C[C@@H]1[C@@H]2CC[C@]2(C)C(=O)CC[C@@H]12	–	240	–	–	–	–
C[C@]12CC/C(=N/O[C@@H]3CCNC3)C[C@@H]1C(=O)C[C@@H]1[C@@H]2CC[C@]2(C)C(=O)CC[C@@H]12	114	250	43.5	>3.6	27.7	Non-toxic
CC(C)(CN)O/N=C1/CC[C@@]2(C)[C@H](C1)C(=O)C[C@@H]1[C@@H]2CC[C@]2(C)C(=O)CC[C@@H]12	–	21	–	–	–	–
C[C@]12CC/C(=N\OC3CCNCC3)C[C@@H]1C(=O)C[C@@H]1[C@@H]2CC[C@]2(C)C(=O)CC[C@@H]12	–	1100	–	–	–	–
C[C@]12CC/C(=N/O[C@@H]3CCNC3)C[C@@H]1[C@@H](O)C[C@@H]1[C@@H]2CC[C@]2(C)C(=O)CC[C@@H]12	216	220	9.62	21	1.64	–
C[C@]12CC/C(=N/O[C@@H]3CCNC3)C[C@@H]1[C@H](O)C[C@@H]1[C@@H]2CC[C@]2(C)C(=O)CC[C@@H]12	256	850	44.8	49.1	3.92	Toxic
CNCCCO/N=C1/CC[C@@]2(C)[C@H](C1)C(O)C[C@@H]1[C@@H]2CC[C@]2(C)C(=O)CC[C@@H]12 (some centres not stated)	77	920	8.95	<17	–	Toxic
C[C@]12CC/C(=N/O[C@H]3CCNC3)C[C@@H]1[C@@H](O)C[C@@H]1[C@@H]2CC[C@]2(C)C(=O)CC[C@@H]12	–	910	–	–	–	–
C[C@]12CC/C(=N\O[C@@H]3CCNC3)C[C@@H]1C(=O)C[C@@H]1[C@@H]2CC[C@]2(C)C(=O)CC[C@@H]12	186	16	2.65	8	0.75	Toxic
C[C@]12CC/C(=N/OCCNC(=N)N)C[C@@H]1C(=O)C[C@@H]1[C@@H]2CC[C@]2(C)C(=O)CC[C@@H]12	–	12000	–	–	–	–
C[C@]12CC/C(=N\OC[C@@H]3CCCN3)C[C@@H]1C(=O)C[C@@H]1[C@@H]2CC[C@]2(C)C(=O)CC[C@@H]12	–	11000	–	–	–	–
C[C@]12CC/C(=N\OC[C@H]3CCCN3)C[C@@H]1C(=O)C[C@@H]1[C@@H]2CC[C@]2(C)C(=O)CC[C@@H]12	–	23000	–	–	–	–
C[C@]12CC/C(=N\OC3CCCNC3)C[C@@H]1C(=O)C[C@@H]1[C@@H]2CC[C@]2(C)C(=O)CC[C@@H]12 (mixture of isomers)	–	33000	–	–	–	–
C[C@H]1O[C@@H](O[C@H]2[C@@H](O)C[C@H](O[C@H]3[C@@H](O)C[C@H](O[C@H]4CC[C@@]5(C)[C@H](CC[C@@H]6[C@@H]5C[C@@H](O)[C@]5(C)[C@@H](C7=CC(=O)OC7)CC[C@]65O)C4)O[C@@H]3C)O[C@@H]2C)C[C@H](O)[C@@H]1O [DIGOXIN]	127	220	0.97	3.2	0.41	Toxic
